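Method: 48-hour compound exposure of cells in 96-well plates, five concentrations, linear interpolation of endpoints. At the TGI there is no net growth.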
Columns and labels:
Experiment in all cases: growth of human tumour cells (NCI), 48 h
[1] = tested on: M19-MEL melanoma
[2] = tested on: RXF-631 renal
[3] = tested on: DLD-1 colon
[4] = tested on: HOP-18 NSCLC
[5] = tested on: MDA-MB-231 breast
[6] = tested on: DU-145 prostate
[7] = tested on: MCF7 breast
[8] = tested on: MDA-MB-435
[9] = tested on: MDA-N

Structure (SMILES) | TGI [1] [µM] | TGI [2] [µM] | TGI [3] [µM] | TGI [4] [µM] | TGI [5] [µM] | TGI [6] [µM] | TGI [7] [nM] | TGI [8] [µM] | TGI [9] [µM]
CCOC(=O)C(C)(C)Oc1ccc2c(=O)cc(-c3ccc(Cl)cc3)oc2c1 | > 100 | > 100 | > 100 | – | – | – | – | – | –
CC1(C)C(=O)N(c2ccccc2)C(=O)N1c1nc2ccccc2[nH]1 | > 100 | > 100 | > 100 | > 100 | – | – | – | – | –
O=C1C=C(c2c(O)ccc3ccccc23)c2ccccc2C1=O | 8.81 | 32.9 | 16.4 | 23.3 | 8.79 | 24 | 2110 | 5.86 | –
CCCCC#COP(=O)(OCC)OCC | > 100 | > 100 | > 100 | – | – | – | – | – | –
C=CCCCCCCCCCCCC1CCC(CC)N1 (stereo not drawn) | 16.2 | 23.5 | 15.5 | 25.2 | – | – | – | – | –
CC(=O)O/N=C/c1ncccc1CO | > 100 | > 100 | > 100 | > 100 | – | – | – | – | –
CCC(=O)c1cn(C)c(=O)c2ccccc12 | – | > 100 | > 100 | – | – | – | – | – | –
C=CCc1cc2cccc(OC)c2oc1=O | > 100 | > 100 | > 100 | > 100 | – | – | – | – | –
Cc1cc2c(CC(=O)O)[nH]nc2c(C(=O)O)c1C | > 100 | > 100 | > 100 | > 100 | – | – | – | – | –
Cc1nc(N)sc1C(=O)/C=C/c1ccc(/C=C/C(=O)c2sc(NC(=O)CCCCCCCCC(=O)Nc3nc(C)c(C(=O)/C=C/c4ccc(/C=C/C(=O)c5sc(N)nc5C)cc4)s3)nc2C)cc1 | > 100 | > 100 | > 100 | > 100 | – | – | – | – | –
O=[N+]([O-])c1c(/C=N/Nc2ccccc2)oc(-c2ccc3c(c2)OCO3)c1-c1ccc2c(c1)OCO2 | > 100 | > 100 | > 100 | – | – | – | – | – | –
COC(=O)c1c(-c2ccccc2)cc2c3cc(-c4ccccc4)c(C(=O)OC)n3c3ccccc3n12 | > 100 | > 100 | > 100 | > 100 | – | – | – | – | –
CCN(CC)CCn1c2c3ccccc3ccc2c2oc(=O)c3ccccc3c21 | > 100 | > 100 | > 100 | > 100 | – | – | – | – | –
N#CCCc1nc2ccc(Br)cc2c(=O)n1CCO | > 100 | > 100 | > 100 | – | – | – | – | – | –
O=C1C(Br)=C[C@H]2C3C=CC(Br)(C3=O)[C@@H]12 (stereo partly drawn) | 24.8 | 50.1 | 20.5 | > 100 | – | – | – | – | –
CC1=C2C(O)C(C(C)CO)C(O)CC2(C)C(O)CC1 (stereo not drawn) | > 100 | > 100 | > 100 | – | – | – | – | – | –
NC(=O)c1c[se]c(C2OC(CO)C(O)C2O)n1 (stereo not drawn) | > 100 | > 100 | > 100 | > 100 | > 100 | > 100 | > 100000 | > 100 | > 100
CN1CCN(CCSC2Cc3cc(Cl)ccc3Sc3ccccc32)CC1 (stereo not drawn) | 4.16 | – | 10.4 | 22.6 | – | – | – | – | –

— PubChem BioAssay (NCI)
